The target in this experiment is bile salt export pump (BSEP) (Homo sapiens, UniProt O95342). In kind it is biochemical.
Sequence of bile salt export pump (BSEP) (O95342 whole entry): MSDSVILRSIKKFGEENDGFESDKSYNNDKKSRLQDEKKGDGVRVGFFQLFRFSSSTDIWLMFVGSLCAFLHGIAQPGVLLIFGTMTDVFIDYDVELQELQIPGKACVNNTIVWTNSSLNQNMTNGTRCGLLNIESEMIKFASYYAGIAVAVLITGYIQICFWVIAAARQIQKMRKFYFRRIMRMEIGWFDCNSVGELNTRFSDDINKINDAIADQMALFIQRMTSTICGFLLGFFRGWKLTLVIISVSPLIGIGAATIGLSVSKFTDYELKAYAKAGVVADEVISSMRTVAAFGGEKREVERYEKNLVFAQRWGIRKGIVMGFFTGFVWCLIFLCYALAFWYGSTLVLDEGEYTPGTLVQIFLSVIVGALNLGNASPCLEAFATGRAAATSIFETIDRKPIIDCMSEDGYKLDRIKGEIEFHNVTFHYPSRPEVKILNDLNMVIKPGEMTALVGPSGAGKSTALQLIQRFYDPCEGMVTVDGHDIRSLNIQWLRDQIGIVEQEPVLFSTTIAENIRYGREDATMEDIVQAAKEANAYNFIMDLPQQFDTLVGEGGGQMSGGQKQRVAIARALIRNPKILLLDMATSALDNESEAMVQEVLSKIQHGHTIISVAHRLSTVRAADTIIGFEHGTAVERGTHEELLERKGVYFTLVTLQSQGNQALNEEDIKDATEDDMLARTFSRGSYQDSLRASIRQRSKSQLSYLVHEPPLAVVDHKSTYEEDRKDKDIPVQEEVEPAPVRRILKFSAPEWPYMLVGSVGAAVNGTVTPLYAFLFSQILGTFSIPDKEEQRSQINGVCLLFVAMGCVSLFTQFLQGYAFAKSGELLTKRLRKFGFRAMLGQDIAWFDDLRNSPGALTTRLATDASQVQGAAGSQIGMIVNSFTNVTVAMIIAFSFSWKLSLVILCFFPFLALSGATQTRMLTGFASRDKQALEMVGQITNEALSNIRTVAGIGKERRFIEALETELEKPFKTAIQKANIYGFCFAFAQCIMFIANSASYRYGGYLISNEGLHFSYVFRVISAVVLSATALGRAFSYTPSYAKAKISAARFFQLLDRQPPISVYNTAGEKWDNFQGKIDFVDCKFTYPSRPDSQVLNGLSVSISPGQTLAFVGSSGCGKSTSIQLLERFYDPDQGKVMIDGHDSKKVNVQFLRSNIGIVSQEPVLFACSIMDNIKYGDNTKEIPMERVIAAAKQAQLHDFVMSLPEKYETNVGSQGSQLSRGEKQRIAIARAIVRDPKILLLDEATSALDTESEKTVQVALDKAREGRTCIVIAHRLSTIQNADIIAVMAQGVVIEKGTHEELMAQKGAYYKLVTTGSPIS

As usually defined, the IC50 is the concentration that gives 50% inhibition. `Cc1cc(OCCCS(C)(=O)=O)cc(C)c1-c1cccc(COc2ccc3c(c2)OC[C@H]3CC(=O)O)c1` [TAK-875]: the IC50 was found to be 14.3 µM.

(Values after article PMC5414857 (Toxicological Sciences, 2017).)
